Literature values as cited in US9278942B2, “Non-steroidal compounds as androgen receptor modulators” (FLX Discoveries Oy, priority 2011, dated 2016).

Target: T1, LNCaP (containing an AR mutation) (Homo sapiens, UniProt P10275, T878A)
T1 sequence (P10275 1-920 T878A): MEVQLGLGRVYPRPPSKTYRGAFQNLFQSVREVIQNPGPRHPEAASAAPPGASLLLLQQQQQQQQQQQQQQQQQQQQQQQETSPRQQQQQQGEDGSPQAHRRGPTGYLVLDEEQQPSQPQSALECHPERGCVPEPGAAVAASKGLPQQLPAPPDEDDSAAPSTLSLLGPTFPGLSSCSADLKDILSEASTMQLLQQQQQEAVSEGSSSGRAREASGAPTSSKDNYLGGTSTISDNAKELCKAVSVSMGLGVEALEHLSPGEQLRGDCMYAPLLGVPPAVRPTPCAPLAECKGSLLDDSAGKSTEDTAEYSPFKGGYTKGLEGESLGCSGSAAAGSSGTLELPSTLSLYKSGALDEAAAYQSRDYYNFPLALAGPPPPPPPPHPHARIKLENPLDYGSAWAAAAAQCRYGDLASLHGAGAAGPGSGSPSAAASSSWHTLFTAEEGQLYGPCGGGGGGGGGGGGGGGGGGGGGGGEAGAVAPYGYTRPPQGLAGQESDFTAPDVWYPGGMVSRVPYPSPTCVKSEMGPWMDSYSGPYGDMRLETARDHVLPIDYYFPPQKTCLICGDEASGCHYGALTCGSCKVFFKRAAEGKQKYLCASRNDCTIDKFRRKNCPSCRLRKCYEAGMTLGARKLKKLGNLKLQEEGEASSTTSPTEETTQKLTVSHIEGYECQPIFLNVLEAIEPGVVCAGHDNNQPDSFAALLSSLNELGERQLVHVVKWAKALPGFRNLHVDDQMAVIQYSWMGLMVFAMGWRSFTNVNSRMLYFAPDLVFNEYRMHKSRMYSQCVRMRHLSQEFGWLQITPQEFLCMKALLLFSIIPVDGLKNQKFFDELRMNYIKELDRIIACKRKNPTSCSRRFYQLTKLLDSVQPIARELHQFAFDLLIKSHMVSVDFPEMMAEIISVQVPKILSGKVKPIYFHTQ
Conditions: LNCaP prostate cancer cells; cited from earlier work

CC(C)(O)C(=O)Nc1ccc([N+](=O)[O-])c(C(F)(F)F)c1 [Hydroxyflutamide, reference compound]
Activity of hydroxyflutamide at the AR mutation of LNCaP cells: agonist
